The results in this text go back to ChEMBL document CHEMBL1157802, “5-Functionalized indazoles as glucocorticoid receptor agonists” (Bioorg Med Chem Lett, 2010).

Where only a bound is given, the exact number is not on record here.

Assay [1] can be described thus: Inhibition of NMDA receptor at 1 uM.
Assay [2] has as its target T1, Muscarinic acetylcholine receptor M2 (Homo sapiens) (UniProt P08172).
T1 sequence (whole entry): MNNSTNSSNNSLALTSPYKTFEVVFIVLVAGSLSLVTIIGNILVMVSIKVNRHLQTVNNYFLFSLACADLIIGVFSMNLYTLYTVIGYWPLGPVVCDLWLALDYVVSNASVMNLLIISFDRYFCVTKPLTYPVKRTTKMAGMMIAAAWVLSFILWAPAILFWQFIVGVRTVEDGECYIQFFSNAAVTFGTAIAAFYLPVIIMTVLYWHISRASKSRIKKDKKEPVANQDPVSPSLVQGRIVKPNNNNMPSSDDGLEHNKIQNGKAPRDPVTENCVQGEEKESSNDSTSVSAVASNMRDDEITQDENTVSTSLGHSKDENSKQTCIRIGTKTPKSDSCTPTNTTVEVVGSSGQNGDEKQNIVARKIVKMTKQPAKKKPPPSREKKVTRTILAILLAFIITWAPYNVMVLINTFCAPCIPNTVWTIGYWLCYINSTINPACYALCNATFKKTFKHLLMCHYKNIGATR
Kind of assay: Inhibition of muscarinic M2 receptor at 1 uM.

The nature of assay [3]: Inhibition of ATP-sensitive potassium channel at 1 uM.
For assay [4], the target named is Prostaglandin E2 receptor EP4 subtype (Homo sapiens) (UniProt P35408). The experiment in a line: Inhibition of prostanoid EP4 receptor at 1 uM.
A short description of assay [5]: Inhibition of sodium channel site 2 at 1 uM.
In assay [6] the target is T2, Glucocorticoid receptor (Homo sapiens, UniProt P04150).
T2 sequence (P04150 whole entry): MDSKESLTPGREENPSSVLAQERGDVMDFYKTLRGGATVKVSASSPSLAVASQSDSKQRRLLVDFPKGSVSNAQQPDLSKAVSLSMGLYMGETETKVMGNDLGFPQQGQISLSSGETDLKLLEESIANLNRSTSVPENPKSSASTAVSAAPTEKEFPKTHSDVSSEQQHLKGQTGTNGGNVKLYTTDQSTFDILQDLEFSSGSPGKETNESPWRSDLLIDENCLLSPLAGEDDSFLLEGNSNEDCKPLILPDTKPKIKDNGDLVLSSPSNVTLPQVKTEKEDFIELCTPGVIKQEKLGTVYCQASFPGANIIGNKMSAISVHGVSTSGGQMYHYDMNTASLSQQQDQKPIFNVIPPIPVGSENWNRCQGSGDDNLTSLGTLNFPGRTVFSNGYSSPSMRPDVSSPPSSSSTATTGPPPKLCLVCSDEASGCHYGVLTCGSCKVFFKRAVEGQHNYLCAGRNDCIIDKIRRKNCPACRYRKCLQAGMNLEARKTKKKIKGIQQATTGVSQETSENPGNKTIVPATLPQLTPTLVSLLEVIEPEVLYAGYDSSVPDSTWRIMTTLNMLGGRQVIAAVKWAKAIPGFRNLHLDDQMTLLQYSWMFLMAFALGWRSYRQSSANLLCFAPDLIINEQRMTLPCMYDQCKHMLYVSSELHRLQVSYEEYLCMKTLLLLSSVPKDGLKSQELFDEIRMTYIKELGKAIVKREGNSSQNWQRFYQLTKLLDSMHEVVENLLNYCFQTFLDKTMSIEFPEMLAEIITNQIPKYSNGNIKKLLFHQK
The experiment in a line: Agonist activity at glucocorticoid receptor in human MDA-kb2 cells transfected with MMTV-LUC assessed as induction of MMTV-LTR/promoter linked LUC gene by luciferase transactivation assay. The class given is functional, cell-based. Particulars: mda-kb2; call rule not given here.

Assay [7] is described as follows: Selectivity for human glucocorticoid receptor over progesterone receptor.
In assay [8] the target is T3, Alpha-1A adrenergic receptor (Homo sapiens) (UniProt P35348).
T3 sequence (whole entry): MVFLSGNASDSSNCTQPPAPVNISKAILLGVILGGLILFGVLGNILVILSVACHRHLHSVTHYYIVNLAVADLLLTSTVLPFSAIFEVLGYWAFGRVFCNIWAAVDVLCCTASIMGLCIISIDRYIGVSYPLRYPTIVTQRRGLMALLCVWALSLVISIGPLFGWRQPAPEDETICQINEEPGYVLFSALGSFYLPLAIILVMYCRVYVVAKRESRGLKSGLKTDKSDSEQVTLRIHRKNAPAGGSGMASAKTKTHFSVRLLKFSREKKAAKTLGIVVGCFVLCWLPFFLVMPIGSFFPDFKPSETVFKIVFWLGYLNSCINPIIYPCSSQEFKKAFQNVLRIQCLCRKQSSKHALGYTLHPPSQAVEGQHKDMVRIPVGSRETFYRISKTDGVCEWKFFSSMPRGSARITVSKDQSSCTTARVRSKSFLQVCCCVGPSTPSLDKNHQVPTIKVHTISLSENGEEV
Kind of assay: Inhibition of adrenergic alpha1A receptor at 1 uM.

Assay [9] has as its target T4, Alpha-1B adrenergic receptor (Homo sapiens) (UniProt P35368).
T4 sequence (whole entry): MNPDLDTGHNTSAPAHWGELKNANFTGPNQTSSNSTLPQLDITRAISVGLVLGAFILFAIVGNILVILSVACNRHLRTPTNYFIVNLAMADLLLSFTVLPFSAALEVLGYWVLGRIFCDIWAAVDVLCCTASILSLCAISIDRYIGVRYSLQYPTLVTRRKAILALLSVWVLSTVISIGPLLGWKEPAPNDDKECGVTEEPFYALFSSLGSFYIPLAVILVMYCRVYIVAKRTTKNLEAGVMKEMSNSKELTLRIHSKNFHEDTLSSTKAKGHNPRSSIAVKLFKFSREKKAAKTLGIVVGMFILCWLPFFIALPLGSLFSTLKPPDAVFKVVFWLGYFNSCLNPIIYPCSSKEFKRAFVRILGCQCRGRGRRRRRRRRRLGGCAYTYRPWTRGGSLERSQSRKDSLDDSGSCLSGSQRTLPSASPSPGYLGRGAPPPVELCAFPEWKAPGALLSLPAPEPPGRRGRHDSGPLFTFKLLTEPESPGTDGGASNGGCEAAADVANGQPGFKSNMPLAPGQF
The experiment in a line: Inhibition of adrenergic Alpha-1B receptor at 1 uM.

Assay [10] concerns the target T5, Alpha-2A adrenergic receptor (Homo sapiens) (UniProt P08913).
T5 sequence (whole entry): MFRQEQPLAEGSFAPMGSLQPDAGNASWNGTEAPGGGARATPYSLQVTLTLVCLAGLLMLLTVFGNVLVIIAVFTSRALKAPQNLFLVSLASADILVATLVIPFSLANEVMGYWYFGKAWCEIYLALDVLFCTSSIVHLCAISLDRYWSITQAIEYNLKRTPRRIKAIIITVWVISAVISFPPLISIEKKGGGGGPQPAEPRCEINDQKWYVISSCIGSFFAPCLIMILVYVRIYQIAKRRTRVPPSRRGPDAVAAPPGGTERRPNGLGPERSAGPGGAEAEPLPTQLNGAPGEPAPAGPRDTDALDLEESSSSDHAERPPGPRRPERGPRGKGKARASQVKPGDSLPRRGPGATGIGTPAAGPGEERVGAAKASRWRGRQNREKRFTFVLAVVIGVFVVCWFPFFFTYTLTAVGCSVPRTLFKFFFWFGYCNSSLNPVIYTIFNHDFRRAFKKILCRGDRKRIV
The experiment in a line: Inhibition of adrenergic alpha2A receptor at 1 uM.

Prostaglandin E2 receptor EP4 subtype (Homo sapiens), sequence (P35408 whole entry): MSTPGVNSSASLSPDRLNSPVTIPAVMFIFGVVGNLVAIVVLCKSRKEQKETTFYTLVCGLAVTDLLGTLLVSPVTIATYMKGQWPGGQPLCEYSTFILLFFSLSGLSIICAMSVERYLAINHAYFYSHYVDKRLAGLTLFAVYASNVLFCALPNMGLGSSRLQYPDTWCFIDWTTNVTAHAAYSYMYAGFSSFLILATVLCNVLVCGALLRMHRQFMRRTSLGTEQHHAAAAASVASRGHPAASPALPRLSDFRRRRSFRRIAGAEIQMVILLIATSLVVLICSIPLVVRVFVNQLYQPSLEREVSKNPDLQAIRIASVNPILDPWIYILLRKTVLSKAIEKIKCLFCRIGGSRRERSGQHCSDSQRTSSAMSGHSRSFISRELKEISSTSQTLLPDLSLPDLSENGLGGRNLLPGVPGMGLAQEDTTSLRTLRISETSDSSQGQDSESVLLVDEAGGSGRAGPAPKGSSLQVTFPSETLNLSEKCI

`OC(c1ccnc(Cl)c1)(c1ccc2c(cnn2-c2ccc(F)cc2)c1)C(F)(F)F` (single isomer, unassigned; (-)): the inhibition in [1], in assay [2], in assay [3], in assay [4], in [5] and in assay [8] was less than 50% in each case. Also, the inhibition in [9] and in assay [10] was less than 50% each time. Further, the EC50 entry in [6] is “Not Active”. For the same compound, the Ratio in assay [7] is more than 1000.
As to `Cc1cc(C(O)(c2ccc3c(cnn3-c3ccc(F)cc3)c2)C(F)(F)F)ccc1F` (single isomer, unassigned; (-)), the inhibition in assay [1], in assay [2], in assay [3], in assay [4], in assay [5] and in assay [8] was less than 50% in each case. For the same compound, the inhibition in [9] and in [10] was less than 50% each time. The EC50 result in assay [6] was “Not Active”. The Ratio in [7] was more than 1000.

As usually defined, the inhibition is the relative decrease from the control value, in per cent. A high value points to a response far below the control.
